Experimental data reported in US20240190904A1, “Heteroaryl compounds as inhibitors of RIP2 kinase, composition and application thereof” (Accro Bioscience (HK) Limited, priority 2021, published 2024).
In brackets after ≈: the same amount, converted by molar mass.

Key:
Caco-2 = Caco-2 permeability test; type: in vitro ADME; conditions: Caco-2
Description: (§1) • 1. Prewarm HBSS Buffer in 37° C. water bath • 2. Take compounds from −20° C., sonicate for a few minutes (no less than 1 minute) • 3. Solution preparation
(§2) For A-to-B direction: • HBSS buffer with 0.3% DMSO and 5 μM LY: add 150 μL DMSO and 50 μL LY (5 mM) into 50 ml HBSS buffer (pH7.4). • HBSS buffer with 0.1% DMSO and 5 μM LY: add 50 μL DMSO and 50 μL LY (5 mM) into 50 mL HBSS buffer (pH7.4).
(§3) For B-to-A direction: • HBSS buffer with 0.3% DMSO: add 150 μL DMSO into 50 ml HBSS buffer (pH7.4) • HBSS buffer with 0.1% DMSO: add 50 μL DMSO into 50 ml HBSS buffer (pH7.4).
(§4) Receiver Solution Buffer:
(§5) Prepare HBSS buffer with 0.4% DMSO: add 200 μL DMSO into 50 ml HBSS buffer (pH7.4).
(§6) For B-to-A direction: • Prepare HBSS buffer with 0.4% DMSO and 5 uM LY: add 200 μL DMSO and 50 μL LY (5 mM) into 50 ml HBSS buffer (pH7.4).
(§7) Take cell culture plate out of incubator, wash the cell monolayers with HBSS buffer, and then measure TEER values at Rm temperature. • 5. Centrifuge the compound solution (from step 3) at 4000 rpm for 5 min before loading to donor chambers. • 6. Add solution based on the volumes listed in the following table (make sure to take extra 100 uL of donor sample for T0 as Backup).
(§8) • 7. To determine LY concentration in the apical chamber, take 100 μL sample from apical chambers into an opaque plate for LYT0. • 8. Prewarm apical and basolateral plates at 37° C. for about 5 min, then begin transport by placing the apical plate onto basolateral plate. • 9. Keep the plates in incubator at 37° C. for 90 min • 10. Prepare 20× solution
(§9) • 11. Separate the apical plate from the basolateral plate after 90-min incubation. • 12. Take 100 μL samples from basolateral plate to an opaque plate as LYT90. • 13. Measure LY concentrations for LYT0 and LYT90 by Fluorometer (at excitation of 485 nm/emission of 535 nm). • 14. Sample preparation for LC-MS/MS: Donor or receiver samples are diluted by 0.4% DMSO HBSS, then mix with ACN with IS (Osalmid or Imipramine)

Caco-2 permeability test = type: in vitro ADME; conditions: human, Caco-2, pH 7.4
Description: as §1, §2, §3, §4, §5, §6, §7, §8, §9

[1] = Metabolic stability test, HLM; type: in vitro ADME; conditions: human, liver microsomes
Description: (§10) • 1. Buffers: • Buffer A: 1.0 L of 0.1 M monobasic Potassium Phosphate buffer containing 1.0 mM EDTA • Buffer B: 1.0 L of 0.1 M Dibasic Potassium Phosphate buffer containing 1.0 mM EDTA • Buffer C: 0.1 M Potassium Phosphate buffer, 1.0 mM EDTA, pH 7.4 by titrating 700 mL of buffer B with buffer A while monitoring with the pH meter. • 2. Reference compounds (Ketanserin) and test compounds spiking solution: • 500 μM spiking solution: add 10 μL of 10 mM DMSO stock solution into 190 μL ACN. • 1.5 μM spiking solution in microsomes (0.75 mg/mL): add 1.5 μL of 500 μM spiking solution and 18.75 μL of 20 mg/mL liver microsomes into 479.75 μL of Buffer C on ice. • 3. Prepare NADPH stock solution (6 mM) by dissolving NADPH into buffer C. • 4. Dispense 30 μL of 1.5 μM spiking solution containing 0.75 mg/mL microsomes solution to the assay plates designated for different time points (0-, 5-, 15-, 30-, 45-min) on ice. • 5. For 0-min time point, add 135 μL of ACN containing IS to the wells of 0-min plate and then add 15 μL of NADPH stock solution (6 mM). • 6. Pre-incubate all other plates at 37° C. for 5 minutes. • 7. Add 15 μL of NADPH stock solution (6 mM) to the plates to start the reaction and timing. • 8. At 5-min, 15-min, 30-min, and 45-min, add 135 μL of ACN containing IS to the wells of corresponding plates, respectively, to stop the reaction. • 9. After quenching, shake the plates at the vibrator (IKA, MTS 2/4) for 10 min (600 rpm/min) and then centrifuge at 5594 g for 15 min (ThermoMultifuge×3R). • 10. Transfer 50 μL of the supernatant from each well into a 96-well sample plate containing 50 μL of ultra pure water (Millipore, ZMQS50F01) for LC/MS analysis.

[2] = Thermodynamic solubility test; type: physicochemical; conditions: thermodynamic from solid; FaSSIF pH 6.5, thermodynamic
Description: • a. Add assay buffer into compound powder to make 4 mg/mL solution. • b. Sample tubes are shaken for 1 hour (1000 rpm), then equilibrated over night at room temperature. • c. Samples are centrifuged (10 min-12000 rpm) to precipitate un-dissolved particles. • d. Supernatants are transferred to new tubes. • e. Concentrations of the supernatants after centrifugation are determined by LCMSMS detection.

[3] = Metabolic stability test, RLM; type: in vitro ADME; conditions: rat, liver microsomes
Description: as §10

[4] = Metabolic stability test, DLM; type: in vitro ADME; conditions: dog, liver microsomes
Description: as §10

RIP2 kinase = RIP2 kinase (Homo sapiens (Human), UniProt O43353); assay: Binding affinity assay (Kd)
Chain of RIP2 kinase (O43353 whole entry): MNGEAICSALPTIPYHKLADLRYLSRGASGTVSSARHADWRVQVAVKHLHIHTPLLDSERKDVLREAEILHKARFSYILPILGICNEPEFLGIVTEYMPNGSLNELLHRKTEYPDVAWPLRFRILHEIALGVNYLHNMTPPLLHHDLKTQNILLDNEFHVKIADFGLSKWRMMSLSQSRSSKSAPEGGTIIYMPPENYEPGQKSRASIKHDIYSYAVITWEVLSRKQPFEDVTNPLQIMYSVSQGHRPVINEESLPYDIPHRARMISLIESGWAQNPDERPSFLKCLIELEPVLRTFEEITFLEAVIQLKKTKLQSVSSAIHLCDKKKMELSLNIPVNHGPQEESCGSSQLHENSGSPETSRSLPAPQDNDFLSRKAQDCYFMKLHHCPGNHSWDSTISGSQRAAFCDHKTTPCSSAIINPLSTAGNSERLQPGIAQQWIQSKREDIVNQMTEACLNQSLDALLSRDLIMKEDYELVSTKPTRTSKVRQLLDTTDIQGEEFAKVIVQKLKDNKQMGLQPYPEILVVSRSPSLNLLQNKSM
Description: For most assays, kinase-tagged T7 phage strains were prepared in an E. coli host derived from the BL21 strain. E. coli were grown to log-phase and infected with T7 phage and incubated with shaking at 32° C. until lysis. The lysates were centrifuged and filtered to remove cell debris. The remaining kinases were produced in HEK-293 cells and subsequently tagged with DNA for qPCR detection. Streptavidin coated magnetic beads were treated with biotinylated small molecule ligands for 30 minutes at room temperature to generate affinity resins for kinase assays. The liganded beads were blocked with excess biotin and washed with blocking buffer (SeaBlock (Pierce), 1% BSA, 0.05% Tween 20, 1 mM DTT) to remove unbound ligand and to reduce non-specific binding. Binding reactions were assembled by combining kinases, liganded affinity beads, and test compounds in 1× binding buffer (20% SeaBlock, 0.17×PBS, 0.05% Tween 20, 6 mM DTT). Test compounds were prepared as 111× stocks in 100% DMSO. Kds were determined using an 11-point 3-fold compound dilution series with three DMSO control points. All compounds for Kd measurements are distributed by acoustic transfer (non-contact dispensing) in 100% DMSO. The compounds were then diluted directly into the assays such that the final concentration of DMSO was 0.9%. All reactions performed in polypropylene 384-well plate. Each was a final volume of 0.02 ml. The assay plates were incubated at room temperature with shaking for 1 hour and the affinity beads were washed with wash buffer (1×PBS, 0.05% Tween 20). The beads were then re-suspended in elution buffer (1×PBS, 0.05% Tween 20, 0.5 μM nonbiotinylated affinity ligand) and incubated at room temperature with shaking for 30 minutes. The kinase concentration in the eluates was measured by qPCR.
An 11-point 3-fold serial dilution of each test compound was prepared in 100% DMSO at 100× final test concentration and subsequently diluted to 1× in the assay (final DMSO concentration=1%). Most Kds were determined using a compound top concentration=30,000 nM. If the initial Kd determined was <0.5 nM (the lowest concentration tested), the measurement was repeated with a serial dilution starting at a lower top concentration.
Binding constants (Kds) were calculated with a standard dose-response curve using the Hill equation: […]
The Hill Slope was set to −1.
Curves were fitted using a non-linear least square fit with the Levenberg-Marquardt algorithm.

permeability (in words) (Caco-2): low | Papp A→B at 90 min (Caco-2 permeability test; A-B): < 0.14 ×10⁻⁶ cm/s | Papp B→A at 90 min (Caco-2 permeability test; B-A): 0.27 ×10⁻⁶ cm/s | efflux ratio at 90 min (Caco-2 permeability test; efflux ratio, read-out: Caco-2 Permeability B-A/A-B): > 1.93 | CLint scaled at 1 μM ([1]; pH 7.4, read-out: Cl (mL/min/kg) HLM): 0.69 mL/min/kg | half-life at 1 μM ([1]; pH 7.4, read-out: T1/2 (min) HLM): 2520 min | solubility [2]: 4.33 mM (≈ 2170 µg/mL) | CLint scaled at 1 μM ([3]; pH 7.4, read-out: Cl (mL/min/kg) RLM): 31.6 mL/min/kg | half-life at 1 μM ([3]; pH 7.4, read-out: T1/2 (min) RLM): 78.7 min | CLint scaled at 1 μM ([4]; pH 7.4, read-out: Cl (mL/min/kg) DLM): 17.4 mL/min/kg | half-life at 1 μM ([4]; pH 7.4, read-out: T1/2 (min) DLM): 198 min | Kd (RIP2 kinase): 1.4 nM
SMILES: CP(C)(=O)c1cc2c(Nc3ccc4scnc4c3)ccnc2cc1-c1cnn(C2CCNCC2)c1 [A13]
